Assay results from patent US20130344026A1, “Dimeric Smac Mimetics” (priority 2009, published 2013).
Like-named read-outs stand apart in the source and are kept apart here. Each block holds one compound with its values, some of them ahead of it. *1 amine or outer side, *2 acyl side, *3 side chain or, on linkers, in order; H or OH if unused. Where a SMILES comes first, the peptide text is derived from it. Bridges are numbered along the chain shown (N, C = ends). Roman numbers before positions name the chains, in order. [ ]: non-standard residue; d: D form. Piperazine(1,4-diyl) = C1CN([*:2])CCN1[*:1]; NH(CH2)8NH = C(CCCCN[*:2])CCCN[*:1]; Chg = N[C@H](C(=O)O)C1CCCCC1; Tle = CC(C)(C)[C@H](N)C(=O)O; NMeA = CN[C@@H](C)C(=O)O

Tested on: HCC461
Experiment: cell viability assay in HCC461, compound alone
Type: cell-based
[1] = HCC461, HCC461, Tables 15-18, read-out: IC50 (uM) in cell viability assay in HCC461
[2] = HCC461, HCC461 cells, compound alone, read-out: IC50 (uM) in cell viability assay in HCC461
[3] = HCC461, HCC461, Tables 6-9, read-out: IC50 (μM) in cell viability assay in HCC461
[4] = HCC461, Tables 6-9, read-out: IC50 (μM) in cell viability assay in HCC461

IC50 [2]: 0.016 µM
SMILES: CN[C@@H](C)C(=O)N[C@H](C(=O)N1C[C@@H](NC(=O)c2cc(Br)cc(C(=O)N[C@H]3C[C@@H](C(=O)NC4CCCc5ccccc54)N(C(=O)[C@@H](NC(=O)[C@H](C)NC)C(C)(C)C)C3)c2)CC1C(=O)N[C@@H]1CCCc2ccccc21)C(C)(C)C (stereo partly shown) [Compound P3-29]

IC50 [2]: 0.214 µM
SMILES: CN[C@@H](C)C(=O)N[C@H](C(=O)N1C[C@@H](NC(=O)C[C@H](NC(C)=O)C(=O)N[C@H]2C[C@@H](C(=O)N[C@@H]3CCCc4ccccc43)N(C(=O)[C@@H](NC(=O)[C@H](C)NC)C(C)(C)C)C2)C[C@H]1C(=O)N[C@@H]1CCCc2ccccc21)C(C)(C)C [Compound P3-67]

IC50 [3]: 0.221 µM
SMILES: CN[C@@H](C)C(=O)N[C@H](C(=O)N1C[C@@H](NC(=O)CC[C@@H](NC(=O)[C@H](NC(=O)[C@@H](C)NC)C(C)(C)C)C(=O)N[C@H]2CCCc3ccccc32)C[C@H]1C(=O)N[C@H](C)C(C)C)C(C)(C)C [Compound 159]

IC50 [2]: 0.099 µM
SMILES: CN[C@@H](C)C(=O)N[C@H](C(=O)N1C[C@@H](NC(=O)CCCCCCC(=O)N[C@H]2C[C@@H](C(=O)N[C@@H]3CCCc4ccccc43)N(C(=O)[C@@H](NC(=O)[C@H](C)NC)C(C)(C)C)C2)C[C@H]1C(=O)N[C@@H]1CCCc2ccccc21)C(C)(C)C [Compound P3-85]

IC50 [2]: 0.022 µM
SMILES: CN[C@@H](C)C(=O)N[C@H](C(=O)N1C[C@@H](NC(=O)CCC(=O)N[C@H]2C[C@@H](C(=O)NC3CCCc4ccccc43)N(C(=O)[C@@H](NC(=O)[C@H](C)NC)C(C)(C)C)C2)C[C@H]1C(=O)NC1CCCc2ccccc21)C(C)(C)C (stereo partly shown) [Compound P3-1]

IC50 [3]: 6.97 µM
SMILES: CC[C@H](NC(=O)[C@H](C)NC)C(C)N[C@@H](CNC(=O)c1cccc(C(=O)N[C@H]2C[C@@H](C(=O)N[C@@H]3CCCc4ccccc43)N(C(=O)[C@@H](NC(=O)[C@H](C)NC)C(C)(C)C)C2)c1)C(=O)N[C@H](C)C(C)C (stereo partly shown) [Compound 137]

IC50 [2]: 2.38 µM
SMILES: CN[C@@H](C)C(=O)N[C@H](C(=O)N1C[C@@H](NC(=O)c2nc[nH]c2C(=O)N[C@H]2C[C@@H](C(=O)N[C@@H]3CCCc4ccccc43)N(C(=O)[C@@H](NC(=O)[C@H](C)NC)C(C)(C)C)C2)C[C@H]1C(=O)N[C@@H]1CCCc2ccccc21)C(C)(C)C [Compound P3-36]

IC50 [2]: 0.017 µM
SMILES: CC[C@H](C)[C@H](NC(=O)[C@H](C)NC)C(=O)N1C[C@@H](NC(=O)c2cc(C(=O)N[C@H]3C[C@@H](C(=O)N[C@H](C)c4ccccc4)N(C(=O)[C@@H](NC(=O)[C@H](C)NC)[C@@H](C)CC)C3)[nH]n2)C[C@H]1C(=O)N[C@H](C)c1ccccc1 [Compound P3-69]

IC50 [2]: 0.036 µM
SMILES: CC[C@H](C)[C@H](NC(=O)[C@H](C)NC)C(=O)N1C[C@@H](NC(=O)/C=C/C(=O)N[C@H]2C[C@@H](C(=O)N[C@H](C)c3ccccc3)N(C(=O)[C@@H](NC(=O)[C@H](C)NC)[C@@H](C)CC)C2)C[C@H]1C(=O)N[C@H](C)c1ccccc1 [Compound P3-76]

IC50 [2]: 0.049 µM
SMILES: CN[C@@H](C)C(=O)N[C@H](C(=O)N1C[C@@H](NC(=O)c2cc(N)cc(C(=O)N[C@H]3C[C@@H](C(=O)N[C@H](C)c4ccccc4)N(C(=O)[C@@H](NC(=O)[C@H](C)NC)C4CCCCC4)C3)c2)C[C@H]1C(=O)N[C@H](C)c1ccccc1)C1CCCCC1 [Compound P3-78]

IC50 [3]: > 30 µM
SMILES: CN[C@@H](C)C(=O)N[C@@H](C(C)C)C(C)N[C@@H](CNC(=O)c1cccc(C(=O)N[C@H]2C[C@@H](C(=O)N[C@@H]3CCCc4ccccc43)N(C(=O)[C@@H](NC(=O)[C@H](C)NC)C(C)(C)C)C2)c1)C(=O)N[C@H](C)C(C)C (stereo partly shown) [Compound 136]

IC50 (HCC461 cells, compound alone, read-out: IC50 (uM) in cell viability assay in HCC461): 0.002 µM
SMILES: CN[C@@H](C)C(=O)N[C@H](C(=O)N1C[C@@H](NC(=O)C2CCCC(C(=O)N[C@H]3C[C@@H](C(=O)NC4CCCc5ccccc54)N(C(=O)[C@@H](NC(=O)[C@H](C)NC)C(C)(C)C)C3)C2)CC1C(=O)N[C@@H]1CCCc2ccccc21)C(C)(C)C (stereo partly shown) [Compound P3-17]

IC50 [3]: 0.03 µM
SMILES: CN[C@@H](C)C(=O)N[C@H](C(=O)N1C[C@@H](NC(=O)CC[C@@H](NC(=O)[C@H](NC(=O)[C@@H](C)NC)C(C)(C)C)C(=O)N[C@H]2CCCc3ccccc32)C[C@H]1C(=O)N[C@@H]1CCCc2ccccc21)C(C)(C)C [Compound 157]

IC50 [2]: 0.002 µM
SMILES: CN[C@@H](C)C(=O)N[C@H](C(=O)N[C@@H](CCCCCC[C@H](NC(=O)[C@@H](NC(=O)[C@H](C)NC)C(C)(C)C)C(=O)N[C@@H]1CCCc2ccccc21)C(=O)N[C@@H]1CCCc2ccccc21)C(C)(C)C [Compound P3-65]

IC50 [2]: 0.077 µM
SMILES: CN[C@@H](CO)C(=O)N[C@H](C(=O)N1C[C@@H](NC(=O)c2cccc(C(=O)N[C@H]3C[C@@H](C(=O)N[C@@H]4CCCc5ccccc54)N(C(=O)[C@@H](NC(=O)[C@H](CO)NC)C(C)(C)C)C3)c2)C[C@H]1C(=O)N[C@@H]1CCCc2ccccc21)C(C)(C)C [Compound P3-86]

IC50 [1]: 0.188 µM
SMILES: CN[C@@H](C)C(=O)N[C@@H](CC#CC#CC[C@H](NC(=O)[C@H](C)NC)C(=O)N1CSC[C@H]1C(=O)N[C@@H]1CCCc2ccccc21)C(=O)N1CSC[C@H]1C(=O)N[C@@H]1CCCc2ccccc21 [Compound P2-33]

The next lines start with the compound.

SMILES: CN[C@@H](C)C(=O)N[C@H](C(=O)N1CCC[C@H]1C(=O)N[C@H](C(=O)NCCCCCCCCNC(=O)[C@@H](NC(=O)[C@@H]1CCCN1C(=O)[C@@H](NC(=O)[C@H](C)NC)C(C)(C)C)C1CCCCC1)C1CCCCC1)C(C)(C)C [Compound P4-7] (I: H-[NMeA][Tle]P[Chg] / II: H-[NMeA][Tle]P[Chg]; linker I:C-II:C via NH(CH2)8NH)
IC50 [1]: 0.205 µM

SMILES: CN[C@@H](C)C(=O)N[C@@H](CCCCNc1nc(NCCCC[C@H](NC(=O)[C@H](C)NC)C(=O)N2CCC[C@H]2C(=O)N[C@@H]2CCCc3ccccc32)nc(OC)n1)C(=O)N1CCC[C@H]1C(=O)N[C@@H]1CCCc2ccccc21 [Compound P2-32]
IC50 [1]: 0.038 µM

SMILES: CN[C@@H](C)C(=O)N[C@H](C(=O)N1C[C@@H](NC(=O)c2ccc(-c3ccc(C(=O)N[C@H]4C[C@@H](C(=O)N[C@@H]5CCCc6ccccc65)N(C(=O)[C@@H](NC(=O)[C@H](C)NC)C(C)(C)C)C4)cc3)cc2)C[C@H]1C(=O)N[C@@H]1CCCc2ccccc21)C(C)(C)C [Compound P3-37]
IC50 [2]: 0.008 µM

SMILES: CN[C@@H](C)C(=O)N[C@@H](CCCCNC(=O)c1ccc(C(=O)NCCCC[C@H](NC(=O)[C@H](C)NC)C(=O)N2CCC[C@H]2C(=O)NC(c2ccccc2)c2ccccc2)cc1)C(=O)N1CCC[C@H]1C(=O)NC(c1ccccc1)c1ccccc1 [Compound P2-30]
IC50 [1]: 0.189 µM

SMILES: CN[C@@H](C)C(=O)N[C@H](C(=O)N1C[C@@H](n2cc(CNC(=O)c3cccc(C(=O)NCc4cn([C@H]5C[C@@H](C(=O)N[C@@H]6CCCc7ccccc76)N(C(=O)[C@@H](NC(=O)[C@H](C)NC)C(C)(C)C)C5)nn4)c3)nn2)C[C@H]1C(=O)N[C@@H]1CCCc2ccccc21)C(C)(C)C [Compound P3-7]
IC50 [2]: 0.007 µM

SMILES: CN[C@@H](C)C(=O)N[C@H](C(=O)N1C[C@@H](NC(=O)c2ccc3cc(C(=O)N[C@H]4C[C@@H](C(=O)N[C@@H]5CCCc6ccccc65)N(C(=O)[C@@H](NC(=O)[C@H](C)NC)C(C)(C)C)C4)ccc3c2)C[C@H]1C(=O)N[C@@H]1CCCc2ccccc21)C(C)(C)C [Compound P3-38]
IC50 [2]: 0.007 µM

SMILES: CN[C@@H](C)C(=O)N[C@H](C(=O)N1CCC[C@H]1Cn1nnnc1SC(C)(C)C)[C@@H](C)OCC#CC#CCO[C@H](C)[C@H](NC(=O)[C@H](C)NC)C(=O)N1CCC[C@H]1Cn1nnnc1SC(C)(C)C [Compound P2-21]
IC50 [1]: 0.24 µM

SMILES: CN[C@@H](C)C(=O)N[C@H](C(=O)N[C@@H](CCCCNC(=O)c1cccc(C(=O)N[C@H]2CC(C(=O)N[C@@H]3CCc4ccccc4C3)N(C(=O)[C@@H](NC(=O)[C@H](C)NC)C(C)(C)C)C2)c1)C(=O)N[C@@H](C)C(C)C)C(C)(C)C (stereo partly shown) [Compound 161]
IC50 [4]: 2.5 µM

SMILES: CN[C@@H](CO)C(=O)N[C@@H](CC#CC#CC[C@H](NC(=O)[C@H](CO)NC)C(=O)N1CCC[C@H]1C(=O)NC1c2ccccc2-c2ccccc21)C(=O)N1CCC[C@H]1C(=O)NC1c2ccccc2-c2ccccc21 [Compound P2-17]
IC50 [1]: 0.134 µM

SMILES: CN[C@@H](C)C(=O)N[C@H](C(=O)N1CCC[C@H]1C(=O)N[C@H](CNC(=O)C1CCCC(C(=O)NC[C@@H](NC(=O)[C@@H]2CCCN2C(=O)[C@@H](NC(=O)[C@H](C)NC)C(C)(C)C)C2CCCCC2)C1)C1CCCCC1)C(C)(C)C (single isomer, unassigned) [Compound P4-4]
IC50 (HCC461, Tables 15-18, read-out: IC50 (uM) in cell viability assay in HCC461): 0.004 µM

SMILES: CN[C@@H](C)C(=O)N[C@H](C(=O)N1CCC[C@H]1C(=O)N[C@H](C(=O)N1CCN(C(=O)[C@@H](NC(=O)[C@@H]2CCCN2C(=O)[C@@H](NC(=O)[C@H](C)NC)C(C)(C)C)C2CCCCC2)CC1)C1CCCCC1)C(C)(C)C [Compound P4-10] (I: H-[NMeA][Tle]P[Chg] / II: H-[NMeA][Tle]P[Chg]; linker I:C-II:C via Piperazine(1,4-diyl))
IC50 [1]: 0.26 µM

SMILES: CN[C@@H](C)C(=O)N[C@@H](CC#CC#CC[C@H](NC(=O)[C@H](C)NC)C(=O)N1C[C@@H](NS(=O)(=O)c2ccccc2)C[C@H]1C(=O)N[C@@H]1CCCc2ccccc21)C(=O)N1C[C@@H](NS(=O)(=O)c2ccccc2)C[C@H]1C(=O)N[C@@H]1CCCc2ccccc21 [Compound P2-11]
IC50 [1]: 0.171 µM

SMILES: C[C@H](NC(=O)OCc1ccc([N+](=O)[O-])cc1)C(=O)NC(C(=O)N1C[C@@H](NC(=O)c2cc(C(=O)N[C@H]3C[C@@H](C(=O)N[C@@H]4CCCc5ccccc54)N(C(=O)[C@@H](NC(=O)[C@H](C)NC(=O)OCc4ccc([N+](=O)[O-])cc4)C(C)(C)C)C3)cc(S(=O)(=O)O)c2)CC1C(=O)N[C@@H]1CCCc2ccccc21)C(C)(C)C (stereo partly shown) [Compound 112]
IC50 [4]: > 30 µM

SMILES: CN[C@@H](C)C(=O)N[C@H](C(=O)N1CC[C@H](NC(=O)c2cccc(C(=O)N[C@H]3C[C@@H](C(=O)N[C@@H]4CCCc5ccccc54)N(C(=O)[C@@H](NC(=O)[C@H](C)NC)C(C)(C)C)C3)c2)C1)C(C)(C)C [Compound 131]
IC50 [3]: 0.642 µM

SMILES: CN[C@@H](C)C(=O)N[C@H](C(=O)N1CCC[C@H]1C(=O)N[C@H](CNC(=O)C1CCC(C(=O)NC[C@@H](NC(=O)[C@@H]2CCCN2C(=O)[C@@H](NC(=O)[C@H](C)NC)C(C)(C)C)C2CCCCC2)CC1)C1CCCCC1)C(C)(C)C (stereo partly shown) [Compound P4-6]
IC50 [1]: 0.07 µM
